# Results taken from patent publication US5817297A, “Composition for enhancing oral hygiene” (LG Chemical Ltd., priority 1996, dated 1998).
# Assays:
# [1] = test system: Streptococcus mutans 10449, type C; assay: Inhibition of plaque formation on glass bar by Streptococcus mutans, Experiment 2; type: cell-based; conditions: for plaque formation(%): 1440 min
# Experimental: The inhibition effect of ursodesoxycholic acid, chenodesoxycholic acid and triclosan as the effective components of the composition for enhancing oral hygiene according to the present invention on plaque formation was determined and compared according to the following method.
# Ursodesoxycholic acid, Chenodesoxycholic aicd, Triclosan.
# 1 Test strain, Streptococcus mutans 10449, type C was cultured in brain-heart infusion agar medium and then the cultured strain was inoculated on THB(Todd Hewitt Broth) and cultured at 37° C. for 15 hours.
# 2 The small glass bar was sterilized and then weighed.
# 3 This glass bar was introduced into the test tube in which the medium containing sucrose is included. The test substance was added at a given concentration to the test tube and then the test microorganism strain was added thereto. The test tube was cultured at 37° C. for 24 hours.
# 4 After incubation, the glass bar was carefully removed from the test tube and dried at 37° C. for one day. The final weight of the glass bar was measured. The control group was treated in the same manner as the test group except that the test substance is not added.
# 5 From the measured result, the plaque formation percentage was calculated according to the following equation: [formula]
# collagenase [2] = assay: Inhibition of collagenase activity (azocol digestion, absorbance at 540 nm), Experiment 1; type: biochemical; conditions: Table 4; final concentration 0.02%, 10% ethanol solution
# Experimental: The inhibition effects on collagenase activity of various substances including ursodesoxycholic acid and chenodesoxycholic acid as the effective components of the composition for enhancing oral hygiene according to the present invention were determined and compared according to the following method.
# ursodesoxycholic aicd, chenodesoxycholic acid, fel tauri salt, bamboo salt, common salt, Machili cortex, Phellodendri cortex, Platycodi radix, Schizonepetae herba, Glycyrrhizae radix, Angelicae gigantis radix, Chamomillae flos, Myrrha, Theae folium, Taraxaci radix cum Herba, Lonicerae flos, Ciniicifugae rhizoma.
# 1 100 μl of 2% azocol solution was added to the test tube and then 190 μl of buffer solution (0.05M Tris-HCl, 1 mM CaCl2, pH 7.8) was added thereto.
# 2 To the resulting solution as prepared above was added to each test substance in the following concentration:
# Ursodesoxycholic acid (10% ethanol solution) or chenodesoxycholic acid (10% ethanol solution) was added to the final concentration of 0.02%;
# Fel tauri salt, bamboo salt or common salt was dissolved in the buffer solution as mentioned above and then added to the final concentration of 2.0%;
# Machili cortex, Phellodendri cortex, Platycodi radix, Schizonepetae herba, Glycyrrhizae radix, Angelicae gigantis radix, Chamomillae flos, Myrrha, Theae folium, Taraxaci radix cum Herba, Lonicerae flos or Cimicifugae rhizoma was added in the form of 30% ethanol extract to the final concentration of 0.1%.
# 3 100 μl of collagenase having 100 ppm concentration was added and then the mixture was maintained in a 37° C. incubator for 18 hours. (Separately, the standard activity curve was prepared from 10, 100, 200 μl of collagenase.)
# 4 The test tubes were centrifuged for 5 minutes.
# 5 The supernatant was separated from the test tube and then added to the cell. The absorbance at 540 nm was measured by spectrophotometer and then the activity of the test group was determined from the standard activity curve.
# gingivitis [3] = assay: Gingivitis index of test subjects using dentifrice of Table 1, Experiment 3; type: in vivo, human; conditions: for effect of alleviating gingivitis / effect on gingivitis in combination with bamboo salt, the extract of medicinal herbs, etc.: dentifrice, in words
# Experimental: (§1) The effect of inhibiting plaque formation and gingivitis was tested using the dentifrice compositions of Examples 1 to 6 and Comparative Examples 1 to 4 described in Table 1 according to the following method. The results are described in the following Tables 7 and 8.
# (§2) 1 The test subjects were selected and were given the explanation of oral medical examination.
# (§3) 2 The test subjects were divided such that the group for each composition of examples and comparative examples includes 10 subjects, and then had the education of correct brushing method. The test subject were subjected to the oral medical examination to measure the plaque index (Quigley-Hein Index modified by Turesky) and the gingivitis index (Gingival Bleeding Index, Loe-Silness Index).
# (§4) 3 Before the test, all the test subjects were subjected to teeth scaling.
# (§5) 4 The placebo dentifrice(calcium monohydrogenphosphate 40%, glycerin 25%, sodium laurylsulfate 1.5%, sodium saccharin 0.1%, paraoxybenzoic acid ester 0.1%, sodium carboxymethylcellulose 1%, purified water added to 100%) was used for 2 weeks and then the oral medical exmamination was conducted again to measure the plaque index and the gingivitis index as the initial value.
# (§6) 5 The test subjects were allowed to brush using the dentifrice of examples and comparative examples for 4 weeks, three times for one day, according to the same method as usual. The oral medical examination was conducted at the second and fourth weeks to determine the plaque index score and the gingivitis index score.
# (§7) 6 The score obtained after 4 weeks was compared with the initial value and examined for the statistic significance using T-test.
# collagenase [4] = assay: Inhibition of collagenase activity (azocol digestion, absorbance at 540 nm), Experiment 1; type: biochemical; conditions: for Absorbance (540 nm) / Enzyme activity inhibition (%): Table 5; for activity for inactivating collagenase / inhibition effect at the concentration in excess of 0.6% / inhibition effect on collagenase activity in comparison with extracts of other medicinal herbs: in words
# gingivitis [5] = assay: Gingivitis index of test subjects using oral rinse of Table 2, Experiment 4; type: in vivo, human; conditions: in words
# Description: as §2, §3, §4, §5, §6, §7
# The effect of inhibiting plaque formation and gingivitis was tested using the oral rinse compositions of Examples 7 to 12 and Comparative Examples 5 to 8 described in Table 2 according to the same method as Experiment 3. The results are described in the following Tables 9 and 10.
# plaque formation [6] = assay: Plaque index of test subjects using dentifrice of Table 1, Experiment 3; type: in vivo, human; conditions: in words; for effect on the plaque formation: dentifrice
# Experimental: as §1, §2, §3, §4, §5, §6, §7
# plaque formation [7] = assay: Plaque index of test subjects using oral rinse of Table 2, Experiment 4; type: in vivo, human; conditions: in words
# Description: as §2, §3, §4, §5, §6
# 6 The score obtained after 4 weeks was compared with the initial value and examined for the statistic significance using T-test. […]
smiles,measurement,setting,value
"C[C@H](CCC(=O)O)[C@H]1CC[C@H]2[C@@H]3[C@@H](O)C[C@@H]4C[C@H](O)CC[C@]4(C)[C@H]3CC[C@]12C [Ursodesoxycholic acid, ursodesoxycholic acid]",pH,[1]; 0.100 (unit not given),4.2
same,plaque formation(%),[1]; 0.100 (unit not given),100.0%
same,Absorbance (540 nm),collagenase [2],0.243
same,Enzyme activity inhibition (%),collagenase [2],45.64%
same,effect of alleviating gingivitis at the concentration in excess of 1.0 wt %,"gingivitis [3]; Comparative Example 2, in words",does not show any increase of the effect in proportion to the increase of the concentration
same,effect of alleviating gingivitis,gingivitis [3],good effect of alleviating gingivitis
same,"effect on gingivitis in combination with bamboo salt, the extract of medicinal herbs, etc.",gingivitis [3],synergistic alleviating effect on gingivitis
same,concentration at which the effect of alleviating gingivitis begins,"gingivitis [3]; human, in vivo",0.01 wt %
same,concentration with a significant effect in comparison with Comparative Example 4,"gingivitis [3]; human, in vivo",≥ 0.02 wt %
same,concentration at which inhibition effect on collagenase begins,collagenase [4],0.01%
same,concentration at which inhibition effect on collagenase reaches the maximum level,collagenase [4],0.6%
same,Absorbance (540 nm),collagenase [4]; content 0.001%,0.326
same,Enzyme activity inhibition (%),collagenase [4]; content 0.001%,-2.82%
same,Absorbance (540 nm),collagenase [4]; content 0.010%,0.305
same,Enzyme activity inhibition (%),collagenase [4]; content 0.010%,13.02%
same,Absorbance (540 nm),collagenase [4]; content 0.020%,0.243
same,Enzyme activity inhibition (%),collagenase [4]; content 0.020%,45.64%
same,Absorbance (540 nm),collagenase [4]; content 0.050%,0.215
same,Enzyme activity inhibition (%),collagenase [4]; content 0.050%,57.54%
same,Absorbance (540 nm),collagenase [4]; content 0.100%,0.166
same,Enzyme activity inhibition (%),collagenase [4]; content 0.100%,71.26%
same,Absorbance (540 nm),collagenase [4]; content 0.150%,0.050
same,Enzyme activity inhibition (%),collagenase [4]; content 0.150%,88.60%
same,Absorbance (540 nm),collagenase [4]; content 0.200%,0.005
same,Enzyme activity inhibition (%),collagenase [4]; content 0.200%,92.03%
same,Absorbance (540 nm),collagenase [4]; content 0.600%,0.002
same,Enzyme activity inhibition (%),collagenase [4]; content 0.600%,92.22%
same,Absorbance (540 nm),collagenase [4]; content 1.000%,0.000
same,Enzyme activity inhibition (%),collagenase [4]; content 1.000%,92.34%
same,Absorbance (540 nm),collagenase [4]; content 2.000%,0.000
same,Enzyme activity inhibition (%),collagenase [4]; content 2.000%,92.34%
same,activity for inactivating collagenase,collagenase [4],good activity for inactivating collagenase
same,inhibition effect at the concentration in excess of 0.6%,collagenase [4],not significantly increased
same,inhibition effect on collagenase activity in comparison with extracts of other medicinal herbs,collagenase [4],superior inhibition effect on collagenase activity
same,alleviating effect for gingivitis,gingivitis [5],good alleviating effect for gingivitis
same,"effect on gingivitis in combination with bamboo salt, the extract of medicinal herbs, etc.",gingivitis [5],synergistic allevia- ting effect on gingivitis
same,effect on the plaque formation,plaque formation [6],no significant effect on the plaque formation
same,plaque effect in combination with the extract of other medicinal herbs,plaque formation [6],do not show any synergistic and antagonistic effect
same,effect on the plaque formation,plaque formation [7],no significant effect on the plaque formation
"C[C@H](CCC(=O)O)[C@H]1CC[C@H]2[C@@H]3[C@H](O)C[C@@H]4C[C@H](O)CC[C@]4(C)[C@H]3CC[C@]12C [Chenodesoxycholic acid, chenodesoxycholic acid]",pH,[1]; 0.100 (unit not given),4.2
same,plaque formation(%),[1]; 0.100 (unit not given),100.0%
same,Absorbance (540 nm),collagenase [2],0.260
same,Enzyme activity inhibition (%),collagenase [2],39.23%
same,effect of alleviating gingivitis,gingivitis [3],good effect of alleviating gingivitis
same,"effect on gingivitis in combination with bamboo salt, the extract of medicinal herbs, etc.",gingivitis [3],synergistic alleviating effect on gingivitis
same,concentration at which inhibition effect on collagenase begins,collagenase [4],0.01%
same,concentration at which inhibition effect on collagenase reaches the maximum level,collagenase [4],0.6%
same,Absorbance (540 nm),collagenase [4]; content 0.001%,0.324
same,Enzyme activity inhibition (%),collagenase [4]; content 0.001%,-1.20%
same,Absorbance (540 nm),collagenase [4]; content 0.010%,0.315
same,Enzyme activity inhibition (%),collagenase [4]; content 0.010%,6.55%
same,Absorbance (540 nm),collagenase [4]; content 0.020%,0.260
same,Enzyme activity inhibition (%),collagenase [4]; content 0.020%,39.23%
same,Absorbance (540 nm),collagenase [4]; content 0.050%,0.230
same,Enzyme activity inhibition (%),collagenase [4]; content 0.050%,52.15%
same,Absorbance (540 nm),collagenase [4]; content 0.100%,0.180
same,Enzyme activity inhibition (%),collagenase [4]; content 0.100%,67.87%
same,Absorbance (540 nm),collagenase [4]; content 0.150%,0.052
same,Enzyme activity inhibition (%),collagenase [4]; content 0.150%,88.41%
same,Absorbance (540 nm),collagenase [4]; content 0.200%,0.007
same,Enzyme activity inhibition (%),collagenase [4]; content 0.200%,91.91%
same,Absorbance (540 nm),collagenase [4]; content 0.600%,0.002
same,Enzyme activity inhibition (%),collagenase [4]; content 0.600%,92.22%
same,Absorbance (540 nm),collagenase [4]; content 1.000%,0.002
same,Enzyme activity inhibition (%),collagenase [4]; content 1.000%,92.22%
same,Absorbance (540 nm),collagenase [4]; content 2.000%,0.002
same,Enzyme activity inhibition (%),collagenase [4]; content 2.000%,92.22%
same,activity for inactivating collagenase,collagenase [4],good activity for inactivating collagenase
same,inhibition effect at the concentration in excess of 0.6%,collagenase [4],not significantly increased
same,inhibition effect on collagenase activity in comparison with extracts of other medicinal herbs,collagenase [4],superior inhibition effect on collagenase activity
same,alleviating effect for gingivitis,gingivitis [5],good alleviating effect for gingivitis
same,"effect on gingivitis in combination with bamboo salt, the extract of medicinal herbs, etc.",gingivitis [5],synergistic allevia- ting effect on gingivitis
same,effect on the plaque formation,plaque formation [6],no significant effect on the plaque formation
same,plaque effect in combination with the extract of other medicinal herbs,plaque formation [6],do not show any synergistic and antagonistic effect
same,effect on the plaque formation,plaque formation [7],no significant effect on the plaque formation
"Oc1cc(Cl)ccc1Oc1ccc(Cl)cc1Cl [Triclosan, triclosan]",pH,[1]; triclosan 0.0010,4.3
same,plaque formation(%),[1]; triclosan 0.0010,100.0%
same,pH,[1]; triclosan 0.0050,4.3
same,plaque formation(%),[1]; triclosan 0.0050,100.0%
same,pH,[1]; triclosan 0.0100,4.3
same,plaque formation(%),[1]; triclosan 0.0100,100.0%
same,pH,[1]; triclosan 0.0300,4.5
same,plaque formation(%),[1]; triclosan 0.0300,50.0%
same,pH,[1]; triclosan 0.0500,7.5
same,plaque formation(%),[1]; triclosan 0.0500,0.0%
